Columns and labels:
[1] = stability in vitro of 11C-labeled compound determined by HPLC; type: physicochemical
Procedure: The stability of IIC-labeled 6-borono-2-(4-methylaminophenyl)benzothiazole in vitro was determined by HPLC, at selected time of 30 min and 60 min. […] Therefore, the radioactive chemical purity of the IIC-labeled radioactive compound met the experimental requirements.

[2] = tested on: amyloid β-protein deposition plaques; experiment: Micro-PET scan of brain uptake in SAMP8 model mice and control mice; type: in vivo; details: for Cerebral cortex uptake of radiopharmaceuticals, Model mice / hippocampus uptake of radiopharmaceuticals, Model mice: SAMP8 model mice; for Cerebral cortex uptake of radiopharmaceuticals, Control mice / hippocampus uptake of radiopharmaceuticals, Control mice: normal control mice
Procedure: SAMP8 (senescence accelerated mouse prone 8) mice are the most common animal model of AD (Alzheimer's disease), in its brain there are a large number of amyloid deposition plaque. In this example, SAMP8 mice were used as model mice, and the normal mice were used as the control mice. Both the model mice and the control mice were 10 months old. The two mice were injected with 6-borono-2-(4-methylaminophenyl)benzothiazole containing labeling, and the Micro-PET scan is used to study whether 6-borono-2-(4-methylaminophenyl)benzothiazole and amyloid β-protein have specific binding properties. Model mice and control mice weighing 31.5±0.3 g were selected, 31.0±0.6 μCi of ^11C labelled 6-borono-2-(4-methylaminophenyl)benzothiazole were injected thereto, and Micro-PET of Model INVEON from Siemens were used for scan, where the scanning window was 350-650 KeV.
It is well known to those skilled in the art that the major cause of Alzheimer's disease is that the amyloid β-protein deposition plaques accumulate in the cerebral cortex and hippocampus of the brain. In this example, Micro-PET scanned and compared the brains of the model and control mice using PMOD software. And the absorption of radioactive 6-borono-2-(4-methylaminophenyl)benzothiazole in the cerebral cortex and hippocampus of SAMP8 model mice and control mice was determined, to further illustrate that the compound is capable of specifically binding to amyloid β-protein deposition plaques.

**Q.** Which “radioactive chemical purity (stability in vitro)” value ([1]; 30 min) does the source give for `CNc1ccc(-c2nc3ccc(B(O)O)cc3s2)cc1` [6-borono-2-(4-methylaminophenyl)benzothiazole] here?
**A.** Its value is 100%.

**Q.** What about the “radioactive chemical purity (stability in vitro)” value ([1]; 60 min) of the same compound?
**A.** Its value is 100%.

**Q.** And the “Cerebral cortex uptake Ratio (model mice/control mice)” value ([2]; 5 min after injection)?
**A.** The value was 1.9.

**Q.** What about the “hippocampus uptake Ratio (model mice/control mice)” value ([2]; 5 min after injection) of the same compound?
**A.** Its value is 1.9.

**Q.** And the “Cerebral cortex uptake Ratio (model mice/control mice)” value ([2]; 15 min after injection)?
**A.** The value was 1.9.

**Q.** And the “hippocampus uptake Ratio (model mice/control mice)” value ([2]; 15 min after injection)?
**A.** Its value is 2.3.

**Q.** What about the “Cerebral cortex uptake Ratio (model mice/control mice)” value ([2]; 25 min after injection) of the same compound?
**A.** Its value is 2.4.

**Q.** And the “hippocampus uptake Ratio (model mice/control mice)” value ([2]; 25 min after injection)?
**A.** Its value is 3.2.

**Q.** And the “Cerebral cortex uptake Ratio (model mice/control mice)” value ([2]; 35 min after injection)?
**A.** The value was 2.7.

**Q.** And the “hippocampus uptake Ratio (model mice/control mice)” value ([2]; 35 min after injection)?
**A.** Its value is 3.2.

**Q.** And the “Cerebral cortex uptake of radiopharmaceuticals, Model mice” value ([2]; 5 min after injection)?
**A.** Its value is 3.03 % ID/g.

**Q.** What about the “hippocampus uptake of radiopharmaceuticals, Model mice” value ([2]; 5 min after injection) of the same compound?
**A.** The value was 3.44 % ID/g.

**Q.** What about the “Cerebral cortex uptake of radiopharmaceuticals, Model mice” value ([2]; 15 min after injection) of the same compound?
**A.** Its value is 2.88 % ID/g.

**Q.** What about the “hippocampus uptake of radiopharmaceuticals, Model mice” value ([2]; 15 min after injection) of the same compound?
**A.** Its value is 3.50 % ID/g.

**Q.** What about the “Cerebral cortex uptake of radiopharmaceuticals, Model mice” value ([2]; 25 min after injection) of the same compound?
**A.** The value was 2.79 % ID/g.

**Q.** What about the “hippocampus uptake of radiopharmaceuticals, Model mice” value ([2]; 25 min after injection) of the same compound?
**A.** Its value is 3.45 % ID/g.

**Q.** And the “Cerebral cortex uptake of radiopharmaceuticals, Model mice” value ([2]; 35 min after injection)?
**A.** Its value is 2.68 % ID/g.

**Q.** What about the “hippocampus uptake of radiopharmaceuticals, Model mice” value ([2]; 35 min after injection) of the same compound?
**A.** Its value is 3.27 % ID/g.

**Q.** What about the “brain radiopharmaceutical absorption (PET image)” value ([2]; SAMP8 model mouse versus control mice, 30 min after injection, FIGS. 5A and 5B) of the same compound?
**A.** Its value is “accumulated a large amount of radiopharmaceuticals relative to the brain of the control mice”.

**Q.** What about the “Cerebral cortex uptake of radiopharmaceuticals, Control mice” value ([2]; 5 min after injection) of the same compound?
**A.** The value was 1.61 % ID/g.

**Q.** And the “hippocampus uptake of radiopharmaceuticals, Control mice” value ([2]; 5 min after injection)?
**A.** The value was 1.80 % ID/g.

**Q.** And the “Cerebral cortex uptake of radiopharmaceuticals, Control mice” value ([2]; 15 min after injection)?
**A.** The value was 1.48 % ID/g.

**Q.** What about the “hippocampus uptake of radiopharmaceuticals, Control mice” value ([2]; 15 min after injection) of the same compound?
**A.** The value was 1.49 % ID/g.

**Q.** And the “Cerebral cortex uptake of radiopharmaceuticals, Control mice” value ([2]; 25 min after injection)?
**A.** Its value is 1.17 % ID/g.

**Q.** And the “hippocampus uptake of radiopharmaceuticals, Control mice” value ([2]; 25 min after injection)?
**A.** The value was 1.09 % ID/g.

**Q.** What about the “Cerebral cortex uptake of radiopharmaceuticals, Control mice” value ([2]; 35 min after injection) of the same compound?
**A.** Its value is 0.99 % ID/g.

**Q.** What about the “hippocampus uptake of radiopharmaceuticals, Control mice” value ([2]; 35 min after injection) of the same compound?
**A.** Its value is 1.01 % ID/g.

From patent US10683310B2, “Compound for specifically binding to amyloid β-protein” (NEUBORON MEDTECH LTD., priority 2015, dated 2020)
